This assay concerns the target T1, LRRK2 (endogenous, HiBit tagged) (Homo sapiens, UniProt Q5S007).
T1 construct: endogenous in cells; host or cells: HEK293 cells with HiBit knock-in at the endogenous LRRK2 locus, stably expressing firefly luciferase
Nature of the assay: Endogenous LRRK2 degradation assay, endogenous gene C-terminally HiBit-tagged in HEK293 cells (Nano-Glo Dual Luciferase). The assay is classed as cell-based. From the text: Exemplary Assay for Testing LRRK2 Degradation Driven by Exemplary Hetero-Bifunctional Compounds Designed to Target LRRK2
The assay measures the degradation of LRRK2 in cells where the C-terminus (3′) of the endogenous gene has been tagged with a HiBit sequence in HEK293 cells. The cells also express firefly luciferase, expressed from a Cytomegalovirus promoter and introduced into the HiBit tagged cells and stably expressed. The Nano-Glo® Dual Luciferase Reporter Assay System (Promega™, Madison, WI) was utilized.
Day 1—Preparation of Compound and Assay Plates. Two sets of plates were prepared: a triplicate set for the HiBit assay in white 384-well plates and a triplicate set of plate in black 384-well plates for the Alamar Blue cell viability assay. Briefly, the growth media (DMEM+Glutamax-10% fetal bovine serum-1% Penicillin-Streptomicin) from two T128 flasks was aspirated from the flasks. Cells were washed with Dulbecco's Phosphate Buffered Saline (dPBS) and aspirated. Trypsin (3 mL per flask) was added and the flasks were incubated for 2-3 minutes.
Ten mL of OptiMEM-10% fetal bovine-1% penicillin-streptomycin (hereinafter, “OptiMEM media”) was added to the flask and the cells and transferred to a 50 mL conical tube. A cell count (25 ul of cell into Effendorf vial+25 ul of Trypan Blue Stain) was performed and the cell density adjusted to 15,000 cell/45 μl/well (3.33×10^5/mL) in OptiMEM media.
Fourty-five microliters of the cell suspension (15,000 cells) was aliquoted to each well of the white 384-well plate. The plates incubated at room temperature for 10 minutes before being placed in the 37° C.+5% CO2 incubator overnight
Day 2—Compound Treatment. Exemplary compounds were prepared at a 1 mM starting concentration and 1:3 serial dilution for 11 points CRC prepared and stored in the freezer. The Master Compound Plate was thawed overnight at room temperature. DMSO (20 μL) was added into column 24 of the Master Compound Plate for negative control and 20 μL of 300 μM of Compound 4 in column 23 as positive control.
Intermediate Compound Plate with 4% DMSO in OptiMEM Media. DMSO was added to warm OptiMEM media to achieve a 4% DMSO solution (approximately 50 mL/plate). One-hundred microliters of the OptiMEM-4% DMSO was aliquoted to each well of 384-Well Deep Well Microplates.
The Master Compound Plate and the Intermediate Compound Plate were spun down.
One microliter of compound from the Master Compound Plate was transferred into the Intermediate plate (a 1:100 dilution). The diluted mixture was mixed and 5 μL transferred into the assay plate (a 1:10 dilution) for the final starting concentration of 1 μM. The Treated Assay plates were incubated for 24 hours at 37° C.+5% CO2. The Master Compound Plate was sealed and store at room temperature for a second run that was performed within a week.
Day 3—HiBit Assay. Five microliters of Alamar Blue was added to each well of the black 384-well plates. The plates were incubated for 2 hours in the incubator (37° C.+5% CO2) and at room temperature for one hour. Fluorescence of each plate was read on a plated reader for the Alamar Blue viability assay.
One set of white assay plates was warmed to room temperature (45 minute).
The One Glo luciferase mixture was prepared. The media from white 384-well assay plates was aspirated. Twenty-five μL of the One Glo luciferase mixture was added to each well of the assay plates. The plates were incubated on the bench (room temperature) for 45 minutes, including 10 minutes of shaking at 700 rpm. The luminescence of each plate was read on a plate reader.
1:100 DLR substrate and 1:100 LgBiT Protein dilution were added to the Promega Stop and Glo buffer and mixed just before addition to assay plates. Twenty-five microliters of Stop and Glo mixture was added to each well. Assay plates incubated for at least 45 minutes, including 10 minutes of shaking at 700 rpm. The luminescence of each plate was read on a plate reader.
Analysis of LRRK2 HiBit Screening assays. […]

[1] abbreviates: endogenous HiBit-tagged LRRK2 in HEK293 cells, 24 hours treatment, read-out: Endogenous WT DC50.
The mark [2] stands for this setting: endogenous HiBit-tagged LRRK2 in HEK293 cells, 24 hours treatment, read-out: Endogenous WT Dmax.
Where [3] appears, read: endogenous HiBit-tagged LRRK2 in HEK293 cells, 24 hours treatment, read-out: **Endogenous WT Dmax (%).
[4] abbreviates: endogenous HiBit-tagged LRRK2 in HEK293 cells, 24 hours treatment, read-out: *Endogenous WT DC50.
[5] abbreviates: endogenous HiBit-tagged LRRK2, HEK293 cells, 24 hours, read-out: **Endogenous WT Dmax (%).
Setting [6] is: endogenous HiBit-tagged LRRK2, HEK293 cells, 24 hours, read-out: *Endogenous WT DC50.

Like-named read-outs stand apart in the source and are kept apart here.

We go through twelve molecules from patent publication US12559506B2, “Indazole based compounds and associated methods of use” (Arvinas Operations, Inc., priority 2021, dated 2026).

Usually DC50 stands for the concentration giving 50% degradation. As usually defined, the Dmax is the largest share of the target that was removed.

T1 sequence (Q5S007 whole entry): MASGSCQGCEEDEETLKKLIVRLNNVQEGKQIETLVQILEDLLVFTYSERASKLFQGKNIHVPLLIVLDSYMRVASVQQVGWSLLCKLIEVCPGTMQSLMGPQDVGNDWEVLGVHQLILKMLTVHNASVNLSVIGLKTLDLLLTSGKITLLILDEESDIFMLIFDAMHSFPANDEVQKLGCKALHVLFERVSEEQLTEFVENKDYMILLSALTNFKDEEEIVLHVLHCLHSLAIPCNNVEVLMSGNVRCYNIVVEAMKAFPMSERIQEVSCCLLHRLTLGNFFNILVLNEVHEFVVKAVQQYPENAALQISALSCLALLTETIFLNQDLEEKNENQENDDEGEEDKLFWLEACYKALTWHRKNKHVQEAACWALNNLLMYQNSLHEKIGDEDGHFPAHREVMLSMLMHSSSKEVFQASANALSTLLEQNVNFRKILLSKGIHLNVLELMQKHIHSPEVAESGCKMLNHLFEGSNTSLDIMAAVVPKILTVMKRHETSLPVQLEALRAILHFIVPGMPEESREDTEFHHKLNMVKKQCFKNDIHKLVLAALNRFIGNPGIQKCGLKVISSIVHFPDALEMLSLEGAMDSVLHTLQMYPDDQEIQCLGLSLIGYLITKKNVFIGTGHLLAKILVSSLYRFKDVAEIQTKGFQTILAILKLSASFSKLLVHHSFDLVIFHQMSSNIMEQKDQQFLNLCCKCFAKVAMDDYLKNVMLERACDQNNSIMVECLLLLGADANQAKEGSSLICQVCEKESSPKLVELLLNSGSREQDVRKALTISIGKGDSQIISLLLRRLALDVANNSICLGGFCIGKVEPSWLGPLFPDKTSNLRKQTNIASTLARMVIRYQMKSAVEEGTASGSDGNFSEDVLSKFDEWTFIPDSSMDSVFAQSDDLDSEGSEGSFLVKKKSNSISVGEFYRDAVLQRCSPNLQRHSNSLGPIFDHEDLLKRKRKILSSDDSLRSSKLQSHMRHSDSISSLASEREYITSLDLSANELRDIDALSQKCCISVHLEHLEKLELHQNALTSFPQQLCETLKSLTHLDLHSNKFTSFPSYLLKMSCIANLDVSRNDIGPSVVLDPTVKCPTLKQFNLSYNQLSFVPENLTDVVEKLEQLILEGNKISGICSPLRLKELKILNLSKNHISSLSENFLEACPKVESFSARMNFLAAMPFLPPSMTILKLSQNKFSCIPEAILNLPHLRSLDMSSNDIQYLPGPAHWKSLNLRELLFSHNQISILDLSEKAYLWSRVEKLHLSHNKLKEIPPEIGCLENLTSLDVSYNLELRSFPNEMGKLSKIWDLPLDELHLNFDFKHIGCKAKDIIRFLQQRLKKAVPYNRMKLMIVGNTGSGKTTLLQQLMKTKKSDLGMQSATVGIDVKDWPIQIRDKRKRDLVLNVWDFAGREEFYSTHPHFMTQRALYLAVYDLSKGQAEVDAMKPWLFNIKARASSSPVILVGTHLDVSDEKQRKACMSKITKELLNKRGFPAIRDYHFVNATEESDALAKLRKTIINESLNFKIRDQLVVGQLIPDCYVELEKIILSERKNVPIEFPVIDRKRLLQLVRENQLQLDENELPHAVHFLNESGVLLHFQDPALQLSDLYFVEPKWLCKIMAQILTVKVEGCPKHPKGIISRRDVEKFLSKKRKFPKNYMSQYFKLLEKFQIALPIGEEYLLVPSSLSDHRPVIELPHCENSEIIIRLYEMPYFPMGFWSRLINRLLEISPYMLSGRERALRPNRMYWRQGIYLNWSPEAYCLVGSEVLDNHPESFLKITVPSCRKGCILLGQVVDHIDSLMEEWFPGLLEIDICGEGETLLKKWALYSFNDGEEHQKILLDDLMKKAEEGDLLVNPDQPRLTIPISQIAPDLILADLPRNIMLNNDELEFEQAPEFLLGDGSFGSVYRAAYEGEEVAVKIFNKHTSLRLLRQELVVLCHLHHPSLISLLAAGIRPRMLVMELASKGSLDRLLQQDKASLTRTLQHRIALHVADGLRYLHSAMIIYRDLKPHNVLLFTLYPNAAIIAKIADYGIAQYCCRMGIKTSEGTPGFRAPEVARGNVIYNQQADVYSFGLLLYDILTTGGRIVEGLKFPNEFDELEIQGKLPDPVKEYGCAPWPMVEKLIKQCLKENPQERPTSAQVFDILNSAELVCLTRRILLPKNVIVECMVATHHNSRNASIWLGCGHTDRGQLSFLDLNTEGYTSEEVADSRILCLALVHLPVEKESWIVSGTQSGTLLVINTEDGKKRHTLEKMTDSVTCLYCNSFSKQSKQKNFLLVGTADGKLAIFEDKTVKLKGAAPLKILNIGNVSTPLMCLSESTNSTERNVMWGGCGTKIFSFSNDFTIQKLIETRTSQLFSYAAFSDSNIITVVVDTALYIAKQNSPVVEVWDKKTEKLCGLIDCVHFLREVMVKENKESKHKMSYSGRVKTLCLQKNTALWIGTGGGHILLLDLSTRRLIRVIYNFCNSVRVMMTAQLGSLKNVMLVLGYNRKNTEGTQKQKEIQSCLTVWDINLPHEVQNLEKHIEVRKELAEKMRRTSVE

On to `CC1(Oc2ccc3[nH]nc(-c4cc(N5CCC(O[C@H]6CC[C@H](CN7CCN(c8ccc9c(c8Cl)CN(C8CCC(=O)NC8=O)C9=O)CC7)CC6)CC5)ncn4)c3c2)CC1` (stereo partly drawn) [Compound 249, 3-[4-chloro-1-oxo-5-(4-{[(1r,4r)-4-[(1-{6-[5-(1-methylcyclopropoxy)-1H-indazol-3-yl]pyrimidin-4-yl}piperidin-4-yl)oxy]cyclohexyl]methyl}piperazin-1-yl)-2,3-dihydro-1H-isoindol-2-yl]piperidine-2,6-dione], for which, under setting [1], the 50% degradation concentration (DC50) is < 10 nM. The Dmax under setting [2] lay within 50 to 70%.
`Cc1nc(-c2n[nH]c3ccc(OC4(C)CC4)cc23)cc(N2CCN(C[C@H]3CC[C@H](OC4CCN(c5ccc6c(c5F)CN(C5CCC(=O)NC5=O)C6=O)CC4)CC3)CC2)n1` (stereo partly drawn) [Compound 365, 3-[4-fluoro-1-oxo-5-(4-{[(1r,4r)-4-[(4-{2-methyl-6-[5-(1-methylcyclopropoxy)-1H-indazol-3-yl]pyrimidin-4-yl}piperazin-1-yl)methyl]cyclohexyl]oxy}piperidin-1-yl)-2,3-dihydro-1H-isoindol-2-yl]piperidine-2,6-dione]: under setting [1], the DC50 is < 10 nM. The Dmax under setting [2] was 50 to 70%.
`CC1(Oc2ccc3[nH]nc(-c4cc(N5CCC(CN6CCN(C[C@@H]7CCN(c8ccc9c(c8F)CN(C8CCC(=O)NC8=O)C9=O)C7)CC6)CC5)ncn4)c3c2)CC1` (stereo partly drawn) [Compound 321, 3-{4-fluoro-5-[(3S)-3-({4-[(1-{6-[5-(1-methylcyclopropoxy)-1H-indazol-3-yl]pyrimidin-4-yl}piperidin-4-yl)methyl]piperazin-1-yl}methyl)pyrrolidin-1-yl]-1-oxo-2,3-dihydro-1H-isoindol-2-yl}piperidine-2,6-dione]: the Dmax under setting [3] was 50 to 70%. The half-maximal degradation concentration (DC50) under setting [4] was < 10 nM.
In the case of `CC1(Oc2ccc3n[nH]c(-c4cc(N5CCN(CC6(F)CCN(CC7CCN(c8cc9c(cc8F)C(=O)N(C8CCC(=O)NC8=O)C9)CC7)CC6)CC5)ncn4)c3c2)CC1` (stereo not drawn) [Compound 183, 3-[6-fluoro-5-[4-[[4-fluoro-4-[[4-[6-[5-(1-methylcyclopropoxy)-2H-indazol-3-yl]pyrimidin-4-yl]piperazin-1-yl]methyl]-1-piperidyl]methyl]-1-piperidyl]-1-oxo-isoindolin-2-yl]piperidine-2,6-dione], the Dmax under setting [5] was ≥ 70%. Further, under setting [6], the 50% degradation concentration (DC50) is < 10 nM.
Regarding `COc1c(N2CCC(CN3CCN(CC4CCN(c5cc(-c6n[nH]c7ccc(OC8(C)CC8)cc67)ncn5)CC4)CC3)CC2)ccc2c1CN(C1CCC(=O)NC1=O)C2=O` (stereo not drawn) [Compound 211, 3-[4-methoxy-5-[4-[[4-[[1-[6-[5-(1-methylcyclopropoxy)-1H-indazol-3-yl]pyrimidin-4-yl]-4-piperidyl]methyl]piperazin-1-yl]methyl]-1-piperidyl]-1-oxo-isoindolin-2-yl]piperidine-2,6-dione], the DC50 under setting [1] is < 10 nM. Also, under setting [2], the maximal degradation (Dmax) was ≥ 70%.
Take `CC1(Oc2ccc3n[nH]c(-c4cc(N5CCN(C[C@H]6CC[C@H](OC7CCN(c8ccc9c(c8F)CN(C8CCC(=O)NC8=O)C9=O)CC7)CC6)CC5)ncn4)c3c2)CC1` (stereo partly drawn) [Compound 234, 3-[4-fluoro-5-[4-[4-[[4-[6-[5-(1-methylcyclopropoxy)-2H-indazol-3-yl]pyrimidin-4-yl]piperazin-1-yl]methyl]cyclohexoxy]-1-piperidyl]-1-oxo-isoindolin-2-yl]piperidine-2,6-dione]: the 50% degradation concentration (DC50) under setting [1] was < 10 nM. Further, under setting [2], the Dmax lay within 50 to 70%.
Regarding `CC1(Oc2ccc3[nH]nc(-c4cc(N5CCC(CN6CCC(F)(CN7CCN(c8ccc9c(c8F)CN(C8CCC(=O)NC8=O)C9=O)CC7)CC6)CC5)ncn4)c3c2)CC1` (stereo not drawn) [Compound 190, 3-[4-fluoro-5-[4-[[4-fluoro-1-[[1-[6-[5-(1-methylcyclopropoxy)-1H-indazol-3-yl]pyrimidin-4-yl]-4-piperidyl]methyl]-4-piperidyl]methyl]piperazin-1-yl]-1-oxo-isoindolin-2-yl]piperidine-2,6-dione], under setting [5], the Dmax is ≥ 70%. Besides, the 50% degradation concentration (DC50) under setting [6] was < 10 nM.
`CC1(Oc2ccc3[nH]nc(-c4ccnc(N5CCC(O[C@H]6CC[C@H](CN7CCN(c8ccc9c(c8F)CN(C8CCC(=O)NC8=O)C9=O)CC7)CC6)CC5)c4)c3c2)CC1` (stereo partly drawn) [Compound 354, 3-(4-fluoro-5-(4-(((1r,4r)-4-((1-(4-(5-(1-methylcyclopropoxy)-1H-indazol-3-yl)pyridin-2-yl)piperidin-4-yl)oxy)cyclohexyl)methyl)piperazin-1-yl)-1-oxoisoindolin-2-yl)piperidine-2,6-dione]: the Dmax under setting [3] was 50 to 70%. Besides, under setting [4], the DC50 is < 10 nM.
As for `CC1(Oc2ccc3[nH]nc(-c4cc(N5CCC(COC6CCC7(CC6)CN(c6ccc8c(c6F)CN(C6CCC(=O)NC6=O)C8=O)C7)CC5)ncn4)c3c2)CC1` (stereo not drawn) [Compound 372, 3-(4-fluoro-5-{7-[(1-{6-[5-(1-methylcyclopropoxy)-1H-indazol-3-yl]pyrimidin-4-yl}piperidin-4-yl)methoxy]-2-azaspiro[3.5]nonan-2-yl}-1-oxo-2,3-dihydro-1H-isoindol-2-yl)piperidine-2,6-dione], the DC50 under setting [1] was < 10 nM. Moreover, the greatest degradation seen (Dmax) under setting [2] lay in the range of 50 to 70%.
In the same order, the values of `CC1(Oc2cc3c(-c4cc(N5CCN(C[C@H]6CC[C@H](CN7CCN(c8ccc9c(c8F)CN(C8CCC(=O)NC8=O)C9=O)CC7)CC6)CC5)ncn4)n[nH]c3cc2F)CC1` (stereo partly drawn) [Compound 203, 3-[4-fluoro-1-oxo-5-(4-{[(1r,4r)-4-[(4-{6-[6-fluoro-5-(1-methylcyclopropoxy)-1H-indazol-3-yl]pyrimidin-4-yl}piperazin-1-yl)methyl]cyclohexyl]methyl}piperazin-1-yl)-2,3-dihydro-1H-isoindol-2-yl]piperidine-2,6-dione] are < 10 nM and ≥ 70%.
As to `COc1c(N2CCC(CN3CCN(C(C)(C)C4CCN(c5cc(-c6n[nH]c7ccc(OC8(C)CC8)cc67)ncn5)CC4)CC3)CC2)ccc2c1CN(C1CCC(=O)NC1=O)C2=O` (stereo not drawn) [Compound 331, 3-{4-methoxy-5-[4-({4-[2-(1-{6-[5-(1-methylcyclopropoxy)-1H-indazol-3-yl]pyrimidin-4-yl}piperidin-4-yl)propan-2-yl]piperazin-1-yl}methyl)piperidin-1-yl]-1-oxo-2,3-dihydro-1H-isoindol-2-yl}piperidine-2,6-dione], the maximal degradation (Dmax) under setting [3] lay in the range of 50 to 70%. The 50% degradation concentration (DC50) under setting [4] was < 10 nM.
`COc1cc(N2CCC(CN3CCN(CC4CCN(c5cc(-c6n[nH]c7ccc(OC8(C)CC8)cc67)ncn5)CC4)CC3)CC2)cc2c1C(=O)N(C1CCC(=O)NC1=O)C2` (stereo not drawn) [Compound 215, 3-[7-methoxy-5-[4-[[4-[[1-[6-[5-(1-methylcyclopropoxy)-1H-indazol-3-yl]pyrimidin-4-yl]-4-piperidyl]methyl]piperazin-1-yl]methyl]-1-piperidyl]-1-oxo-isoindolin-2-yl]piperidine-2,6-dione]: the DC50 under setting [1] was < 10 nM. The Dmax under setting [2] is ≥ 70%.
